Source: ChEMBL document CHEMBL4138123, “Design, synthesis and biological evaluation of novel pyrazolochalcones as potential modulators of PI3K/Akt/mTOR pathway and inducers of apoptosis in breast cancer cells” (Eur J Med Chem, 2017)

Legend:
Type in all cases: functional
SNB-19 = assay: Cytotoxicity against human SNB19 cells assessed as cell growth at 100 uM after 48 hrs by sulforhodamine B assay relative to control; conditions: SNB-19, 48 h, read-out: Activity
SF-268 [1] = assay: Cytotoxicity against human SF268 cells assessed as cell growth at 0.01 uM after 48 hrs by sulforhodamine B assay relative to control; conditions: SF-268, 48 h, read-out: Activity
786-0 = assay: Cytotoxicity against human 786-0 cells assessed as growth inhibition after 48 hrs by sulforhodamine B assay; conditions: 786-0, 48 h
RXF 393 [2] = assay: Cytotoxicity against human RXF393 cells assessed as cell growth at 100 uM after 48 hrs by sulforhodamine B assay relative to control; conditions: RXF 393, 48 h, read-out: Activity
SR = assay: Cytotoxicity against human SR cells assessed as cell growth at 100 uM after 48 hrs by sulforhodamine B assay relative to control; conditions: read-out: Activity
U-251 = assay: Cytotoxicity against human U251 cells assessed as cell growth at 10 uM after 48 hrs by sulforhodamine B assay relative to control; conditions: U-251, 48 h, read-out: Activity
SF-268 [3] = assay: Cytotoxicity against human SF268 cells assessed as cell growth at 0.1 uM after 48 hrs by sulforhodamine B assay relative to control; conditions: SF-268, 48 h, read-out: Activity
UO-31 [4] = assay: Cytotoxicity against human UO31 cells assessed as cell growth at 1 uM after 48 hrs by sulforhodamine B assay relative to control; conditions: UO-31, 48 h, read-out: Activity
OVCAR-8 [5] = assay: Cytotoxicity against human OVCAR8 cells assessed as cell growth at 0.01 uM after 48 hrs by sulforhodamine B assay relative to control; conditions: OVCAR-8, 48 h, read-out: Activity
Malme-3M = assay: Cytotoxicity against human MALME-3M cells assessed as growth inhibition after 48 hrs by sulforhodamine B assay
MDA-MB-231 = assay: Cytotoxicity against human MDA-MB-231 cells assessed as cell growth at 0.01 uM after 48 hrs by sulforhodamine B assay relative to control; conditions: MDA-MB-231, 48 h, read-out: Activity
OVCAR-4 = assay: Cytotoxicity against human OVCAR4 cells assessed as growth inhibition after 48 hrs by sulforhodamine B assay; conditions: OVCAR-4, 48 h
SW-620 = assay: Cytotoxicity against human SW620 cells assessed as cell growth at 0.01 uM after 48 hrs by sulforhodamine B assay relative to control; conditions: SW-620, 48 h, read-out: Activity
UACC-257 = assay: Cytotoxicity against human UACC257 cells assessed as cell growth at 100 uM after 48 hrs by sulforhodamine B assay relative to control; conditions: UACC-257, 48 h, read-out: Activity
HCT-116 [6] = assay: Cytotoxicity against human HCT116 cells assessed as growth inhibition after 48 hrs by sulforhodamine B assay; conditions: HCT-116, 48 h
SK-OV-3 = assay: Cytotoxicity against human SKOV3 cells assessed as cell growth at 100 uM after 48 hrs by sulforhodamine B assay relative to control; conditions: SK-OV-3, 48 h, read-out: Activity
HT-29 [7] = assay: Cytotoxicity against human HT-29 cells assessed as cell growth at 1 uM after 48 hrs by sulforhodamine B assay relative to control; conditions: HT-29, 48 h, read-out: Activity
UO-31 [8] = assay: Cytotoxicity against human UO31 cells assessed as cell growth at 0.01 uM after 48 hrs by sulforhodamine B assay relative to control; conditions: UO-31, 48 h, read-out: Activity
OVCAR-8 [9] = assay: Cytotoxicity against human OVCAR8 cells assessed as growth inhibition after 48 hrs by sulforhodamine B assay; conditions: OVCAR-8, 48 h
OVCAR-5 [10] = assay: Cytotoxicity against human OVCAR5 cells assessed as cell growth at 0.01 uM after 48 hrs by sulforhodamine B assay relative to control; conditions: OVCAR-5, 48 h, read-out: Activity
SK-MEL-28 = assay: Cytotoxicity against human SK-MEL-28 cells assessed as cell growth at 0.1 uM after 48 hrs by sulforhodamine B assay relative to control; conditions: SK-MEL-28, 48 h, read-out: Activity
A498 = assay: Cytotoxicity against human A498 cells assessed as cell growth at 0.1 uM after 48 hrs by sulforhodamine B assay relative to control; conditions: A498, 48 h, read-out: Activity
RXF 393 [11] = assay: Cytotoxicity against human RXF393 cells assessed as cell growth at 0.1 uM after 48 hrs by sulforhodamine B assay relative to control; conditions: RXF 393, 48 h, read-out: Activity
OVCAR-5 [12] = assay: Cytotoxicity against human OVCAR5 cells assessed as growth inhibition after 48 hrs by sulforhodamine B assay; conditions: OVCAR-5, 48 h
SF-539 = assay: Cytotoxicity against human SF539 cells assessed as cell growth at 100 uM after 48 hrs by sulforhodamine B assay relative to control; conditions: SF-539, 48 h, read-out: Activity
MCF7 [13] = assay: Cytotoxicity against human MCF7 cells assessed as cell growth at 1 uM after 48 hrs by sulforhodamine B assay relative to control; conditions: MCF7, 48 h, read-out: Activity
HT-29 [14] = assay: Cytotoxicity against human HT-29 cells assessed as cell growth at 0.1 uM after 48 hrs by sulforhodamine B assay relative to control; conditions: HT-29, 48 h, read-out: Activity
OVCAR-3 = assay: Cytotoxicity against human OVCAR3 cells assessed as cell growth at 10 uM after 48 hrs by sulforhodamine B assay relative to control; conditions: OVCAR-3, 48 h, read-out: Activity
COLO 205 [15] = assay: Cytotoxicity against human COLO205 cells assessed as cell growth at 1 uM after 48 hrs by sulforhodamine B assay relative to control; conditions: COLO 205, 48 h, read-out: Activity
COLO 205 [16] = assay: Cytotoxicity against human COLO205 cells assessed as cell growth at 100 uM after 48 hrs by sulforhodamine B assay relative to control; conditions: COLO 205, 48 h, read-out: Activity
MCF7 [17] = assay: Cytotoxicity against human MCF7 cells assessed as cell growth at 0.1 uM after 48 hrs by sulforhodamine B assay relative to control; conditions: MCF7, 48 h, read-out: Activity
K562 = assay: Cytotoxicity against human K562 cells assessed as cell growth at 0.01 uM after 48 hrs by sulforhodamine B assay relative to control; conditions: K562, 48 h, read-out: Activity
HT-29 [18] = assay: Cytotoxicity against human HT-29 cells assessed as cell growth at 10 uM after 48 hrs by sulforhodamine B assay relative to control; conditions: HT-29, 48 h, read-out: Activity
NCI-H322M = assay: Cytotoxicity against human NCI-H322M cells assessed as growth inhibition after 48 hrs by sulforhodamine B assay; conditions: for CC50: read-out: LC50 (the source's name)
HCT-116 [19] = assay: Cytotoxicity against human HCT116 cells assessed as cell growth at 1 uM after 48 hrs by sulforhodamine B assay relative to control; conditions: HCT-116, 48 h, read-out: Activity
OVCAR-8 [20] = assay: Cytotoxicity against human OVCAR8 cells assessed as cell growth at 1 uM after 48 hrs by sulforhodamine B assay relative to control; conditions: OVCAR-8, 48 h, read-out: Activity

COc1cc2c(cc1OC)C(=O)/C(=C/c1cc(-c3ccc4c(c3)OCO4)n[nH]1)C2
growth at 100 µM (SNB-19): -94%
growth at 0.01 µM (SF-268 [1]): 95%
GI50 (786-0): 1.61 µM
LC50 (786-0): 5.54 µM
TGI (786-0): 2.99 µM
growth at 100 µM (RXF 393 [2]): -92%
growth at 100 µM (SR): -22%
growth at 10 µM (U-251): -97%
growth at 0.1 µM (SF-268 [3]): 96%
growth at 1 µM (UO-31 [4]): 68%
growth at 0.01 µM (OVCAR-8 [5]): 98%
GI50 (Malme-3M): 1.74 µM
LC50 (Malme-3M): 7.43 µM
TGI (Malme-3M): 3.6 µM
growth at 0.01 µM (MDA-MB-231): 106%
GI50 (OVCAR-4): 1.11 µM
LC50 (OVCAR-4): 5 µM
TGI (OVCAR-4): 2.36 µM
growth at 0.01 µM (SW-620): 98%
growth at 100 µM (UACC-257): -95%
GI50 (HCT-116 [6]): 1.03 µM
LC50 (HCT-116 [6]): 6.31 µM
TGI (HCT-116 [6]): 2.54 µM
growth at 100 µM (SK-OV-3): -97%
growth at 1 µM (HT-29 [7]): 74%
growth at 0.01 µM (UO-31 [8]): 86%
GI50 (OVCAR-8 [9]): 1.57 µM
LC50 (OVCAR-8 [9]): 5.93 µM
TGI (OVCAR-8 [9]): 3.05 µM
growth at 0.01 µM (OVCAR-5 [10]): 102%
growth at 0.1 µM (SK-MEL-28): 101%
growth at 0.1 µM (A498): 80%
growth at 0.1 µM (RXF 393 [11]): 82%
GI50 (OVCAR-5 [12]): 1.56 µM
LC50 (OVCAR-5 [12]): 5.79 µM
TGI (OVCAR-5 [12]): 3 µM
growth at 100 µM (SF-539): -94%
growth at 1 µM (MCF7 [13]): 15%
growth at 0.1 µM (HT-29 [14]): 103%
growth at 10 µM (OVCAR-3): -92%
growth at 1 µM (COLO 205 [15]): 94%
growth at 100 µM (COLO 205 [16]): -88%
growth at 0.1 µM (MCF7 [17]): 89%
growth at 0.01 µM (K562): 97%
growth at 10 µM (HT-29 [18]): -77%
GI50 (NCI-H322M): 1.54 µM
TGI (NCI-H322M): 3.01 µM
CC50 (NCI-H322M): 5.87 µM
growth at 1 µM (HCT-116 [19]): 51%
growth at 1 µM (OVCAR-8 [20]): 84%

COc1ccc(C(=O)/C=C/c2cc(-c3cc(OC)c(OC)c(OC)c3)n[nH]2)cc1OC
growth at 100 µM (SNB-19): -95%
growth at 0.01 µM (SF-268 [1]): 93%
LC50 (786-0): 5.82 µM
TGI (786-0): 2.86 µM
growth at 100 µM (RXF 393 [2]): -98%
growth at 100 µM (SR): 3%
growth at 10 µM (U-251): -100%
growth at 0.1 µM (SF-268 [3]): 89%
growth at 1 µM (UO-31 [4]): 67%
growth at 0.01 µM (OVCAR-8 [5]): 97%
LC50 (Malme-3M): 6.79 µM
TGI (Malme-3M): 3.68 µM
growth at 0.01 µM (MDA-MB-231): 104%
LC50 (OVCAR-4): 49.9 µM
TGI (OVCAR-4): 16.6 µM
growth at 0.01 µM (SW-620): 101%
growth at 100 µM (UACC-257): -97%
TGI (HCT-116 [6]): 2.63 µM
growth at 100 µM (SK-OV-3): -98%
growth at 1 µM (HT-29 [7]): 88%
growth at 0.01 µM (UO-31 [8]): 86%
LC50 (OVCAR-8 [9]): 5.64 µM
TGI (OVCAR-8 [9]): 2.73 µM
growth at 0.01 µM (OVCAR-5 [10]): 101%
growth at 0.1 µM (SK-MEL-28): 104%
growth at 0.1 µM (A498): 86%
growth at 0.1 µM (RXF 393 [11]): 100%
LC50 (OVCAR-5 [12]): 5.75 µM
TGI (OVCAR-5 [12]): 3.03 µM
growth at 100 µM (SF-539): -96%
growth at 1 µM (MCF7 [13]): 31%
growth at 0.1 µM (HT-29 [14]): 105%
growth at 10 µM (OVCAR-3): -91%
growth at 1 µM (COLO 205 [15]): 95%
growth at 100 µM (COLO 205 [16]): -75%
growth at 0.1 µM (MCF7 [17]): 91%
growth at 0.01 µM (K562): 96%
growth at 10 µM (HT-29 [18]): -94%
TGI (NCI-H322M): 2.9 µM
CC50 (NCI-H322M): 5.51 µM
growth at 1 µM (HCT-116 [19]): 47%
growth at 1 µM (OVCAR-8 [20]): 69%
